# System: Hedgehog pathway activity
# Experiment: Shh-Light luciferase reporter assay of Hedgehog pathway activity (Shh-Light2 cells, SAG-stimulated)
# Type: cell-based
# Details: for activity at 2 µM: 2 μM compound, read-out: SHH-light % residual @ 2 μM; for activity at 2 µM / activity at 20 µM: SAG 500 nM; for activity at 20 µM: 20 μM compound, read-out: SHH-light % residual @ 20 μM; for IC50: Table 2, SAG 500 nM, 28-32 hr treatment, read-out: Shh-light IC50
# Protocol: To examine the inhibition of dynein 2 in cell-based assays, an established luciferase reporter-based cellular assay of Hedgehog pathway activity was employed [Taipale et al., Nature. 2000; 406(6799): 1005-9]. Signaling in this pathway depends on the function of dynein 2. In this setting, expression of luciferase driven by Hedgehog pathway activity was inhibited by compound 5 with an IC50 value of 0.9±0.5 μM. […] The potencies of these compounds in this cell-based assay match the rank-order of dynein 2 inhibition in vitro. In these assays, Hedgehog pathway activity was stimulated using the Synthetic Agonist of Smoothened (SAG). This compound competes with many Hedgehog pathway inhibitors for binding to Smoothened, a key node in the signaling pathway.
# SHH-Light Assay (Steinman et al. eLife 2017; 6:e25174.)
# NIH-3T3 cells stably expressing a luciferase reporter downstream of a Gli binding site (Shh-Light2 cells, RRID: CVCL_2721) were maintained in DMEM with 10% bovine calf serum (BCS). Cells were seeded at a density of 30,000 cells/well in 96-well tissue culture-treated plates (Corning, cat #353072) in 100 μL in DMEM+10% BCS, and incubated for 48 hr (Taipale et al., 2000). Wells were washed briefly with PBS. Next […] of low serum media (DMEM+0.5% BCS) containing smoothened agonist (SAG, 500 nM), and either solvent control (0.2% DMSO) or test compound (serial three-fold dilutions of each inhibitor starting from 20 μM) were added to the wells. After 28-32 hr of inhibitor treatment, cells were washed with 50 μL PBS and lysed for >30 min in 30 μL Passive Lysis Buffer (Promega Dual Luciferase kit, cat E1910). 5 uL of each lysate was transferred to white, solid-bottom 96-well plates (Greiner, cat #655075), followed by rapid addition (within 30 s) of 30 μL of Luciferase Assay Reagent using a multichannel pipette. Luminescence for each condition was read using a Synergy Neo plate reader (5 s integration time per well). Cell line identity was confirmed by measurement of the degree of response to Hedgehog pathway stimulation by the synthetic agonist SAG and using previously published values from our groups and others as references (Firestone et al., 2012; Hyman et al., 2009).
SMILES,activity at 2 µM,activity at 20 µM,IC50
"N#Cc1c(OC2CCN(C(=O)c3ccc(Cl)cc3)CC2)nn2c(=O)c3cc(Cl)ccc3[nH]c12 [Example 24, 7-Chloro-2-[[1-(4-chlorobenzoyl)-4-piperidyl]oxy]-9-oxo-4H-pyrazolo[5,1-b]quinazoline-3-carbonitrile]",72.4%,1.6%,
"NC(=O)c1c(CCCOc2ccc(Cl)cc2)nn2c(=O)c3ccccc3[nH]c12 [Example 28, 2-[3-(4-Chlorophenoxy)propyl]-9-oxo-4H-pyrazolo[5,1-b]quinazoline-3-carboxamide]",68.9%,40.3%,
"COc1ccc2[nH]c3c(C(N)=O)c(-c4ccc(Cl)cc4Cl)nn3c(=O)c2c1 [Example 39, 2-(2,4-Dichlorophenyl)-7-methoxy-9-oxo-4H-pyrazolo[5,1-b]quinazoline-3-carboxamide]",,121%,13000 nM
"O=c1c2ccccc2[nH]c2c(I)c(-c3ccc(Cl)cc3Cl)nn12 [Example 73, 2-(2,4-Dichlorophenyl)-3-iodo-4H-pyrazolo[5,1-b]quinazolin-9-one]",99.1%,34.6%,
"N#Cc1c(OC2CCN(c3ccc(Cl)cn3)CC2)nn2c(=O)c3cc(Cl)ccc3[nH]c12 [Example 25, 7-Chloro-2-[[1-(5-chloro-2-pyridyl)-4-piperidyl]oxy]-9-oxo-4H-pyrazolo[5,1-b]quinazoline-3-carbonitrile]",41.7%,-3.8%,
"N#Cc1c(C2(c3ccc(Cl)cc3)CC2)nn2c(=O)c3cc(C4CC4)ccc3[nH]c12 [Example 14, 2-[1-(4-Chlorophenyl)cyclopropyl]-7-cyclopropyl-9-oxo-4H-pyrazolo[5,1-b]quinazoline-3-carbonitrile]",-2.3%,-1.8%,470 nM
"N#Cc1c(C2(c3ccc(Cl)cc3)CC2)nn2c(=O)c3cc(Cl)ccc3[nH]c12 [Example 18, 7-Chloro-2-[1-(4-chlorophenyl)cyclopropyl]-9-oxo-4H-pyrazolo[5,1-b]quinazoline-3-carbonitrile]",-0.5%,2.8%,760 nM
"N#Cc1c(C2(C(F)(F)F)CC2)nn2c(=O)c3ccccc3[nH]c12 [Example 59, 9-Oxo-2-[1-(trifluoromethyl)cyclopropyl]-4H-pyrazolo[5,1-b]quinazoline-3-carbonitrile]",89.3%,45.1%,
"N#Cc1ccc2[nH]c3c(C#N)c(C4(c5ccc(Cl)cc5)CC4)nn3c(=O)c2c1 [Example 10, 2-[1-(4-Chlorophenyl)cyclopropyl]-9-oxo-4H-pyrazolo[5,1-b]quinazoline-3,7-dicarbonitrile]",70.1%,10%,
"NC(=O)c1c(-c2ccc(Cl)cc2Cl)nn2c(=O)c3ccc(Cl)cc3[nH]c12 [Example 34, 6-Chloro-2-(2,4-dichlorophenyl)-9-oxo-4H-pyrazolo[5,1-b]quinazoline-3-carboxamide]",,-3.4%,3600 nM
"COc1ccc2c(c1)c(=O)[nH]c1c(C#N)c(-c3ccc(Cl)cc3Cl)nn12 [Example 65, 2-(2,4-Dichlorophenyl)-7-methoxy-5-oxo-4H-pyrazolo[1,5-a]quinazoline-3-carbonitrile]",76.9%,-1%,
"N#Cc1c(-c2ccc(Cl)cc2Cl)nn2c(=O)c3ccccc3[nH]c12 [Example 33, 2-(2,4-Dichlorophenyl)-9-oxo-4H-pyrazolo[5,1-b]quinazoline-3-carbonitrile]",,-3.6%,2000 nM
"N#Cc1c(COc2ccc(Cl)cc2)nn2c(=O)c3ccccc3[nH]c12 [Example 42, 2-[(4-Chlorophenoxy)methyl]-9-oxo-4H-pyrazolo[5,1-b]quinazoline-3-carbonitrile]",105%,4.5%,
"N#Cc1c(N2CCC(c3ccc(Cl)cc3)CC2)nn2c(=O)c3cc(Cl)ccc3[nH]c12 [Example 20, 7-Chloro-2-[4-(4-chlorophenyl)-1-piperidyl]-9-oxo-4H-pyrazolo[5,1-b]quinazoline-3-carbonitrile]",-2.5%,-3.1%,330 nM
"COc1c(Cl)ccc2c(=O)n3nc(-c4ccc(Cl)cc4Cl)c(C#N)c3[nH]c12 [Example 38, 6-Chloro-2-(2,4-dichlorophenyl)-5-methoxy-9-oxo-4H-pyrazolo[5,1-b]quinazoline-3-carbonitrile]",74%,19%,2000 nM
"NC(=O)c1c(-c2ccc(Cl)cc2Cl)nn2c1[nH]c(=O)c1ccccc12 [Example 62, 2-(2,4-Dichlorophenyl)-5-oxo-4H-pyrazolo[1,5-a]quinazoline-3-carboxamide]",,42.1%,
"O=c1c2ccc(Cl)cc2[nH]c2cc(-c3ccc(Cl)cc3Cl)nn12 [Example 69, 6-Chloro-2-(2,4-dichlorophenyl)-4H-pyrazolo[5,1-b]quinazolin-9-one]",75%,65.4%,
"N#Cc1c(C2(c3ccc(Cl)cc3)CC2)nn2c(=O)c3cc(F)ccc3[nH]c12 [Example 19, 2-[1-(4-Chlorophenyl)cyclopropyl]-7-fluoro-9-oxo-4H-pyrazolo[5,1-b]quinazoline-3-carbonitrile]",1.4%,-0.4%,1600 nM
"COC(=O)c1c(-c2ccc(Cl)cc2Cl)nn2c(=O)c3ccccc3[nH]c12 [Example 67, Methyl 2-(2,4-dichlorophenyl)-9-oxo-4H-pyrazolo[5,1-b]quinazoline-3-carboxylate]",,80.3%,
"N#Cc1c(C2CCC(c3ccc(Cl)cc3)CC2)nn2c(=O)c3cc(Br)ccc3[nH]c12 (centres unmarked) [Example 22, 7-Bromo-2-[4-(4-chlorophenyl)cyclohexyl]-9-oxo-4H-pyrazolo[5,1-b]quinazoline-3-carbonitrile]",-2.9%,-2.8%,670 nM
"NC(=O)c1c(-c2ccc(Cl)cc2Cl)nn2c(=O)c3c(OCc4ccccc4)cccc3[nH]c12 [Example 49, 8-Benzyloxy-2-(2,4-dichlorophenyl)-9-oxo-4H-pyrazolo[5,1-b]quinazoline-3-carboxamide]",78.3%,10.8%,
"COc1cccc2c(=O)n3nc(-c4ccc(Cl)cc4Cl)c(C#N)c3[nH]c12 [Example 36, 2-(2,4-Dichlorophenyl)-5-methoxy-9-oxo-4H-pyrazolo[5,1-b]quinazoline-3-carbonitrile]",,,10000 nM
"COc1ccc2[nH]c3c(C#N)c(-c4ccc(Cl)cc4Cl)nn3c(=O)c2c1 [Example 40, 2-(2,4-Dichlorophenyl)-7-methoxy-9-oxo-4H-pyrazolo[5,1-b]quinazoline-3-carbonitrile]",37%,14%,594 nM
"CN(C)Cc1c(-c2ccc(Cl)cc2Cl)nn2c(=O)c3ccccc3[nH]c12 [Example 72, 2-(2,4-Dichlorophenyl)-3-[(dimethylamino)methyl]-4H-pyrazolo[5,1-b]quinazolin-9-one]",122%,20.1%,
"NC(=O)c1c(C2CCC(c3ccc(Cl)cc3)CC2)nn2c(=O)c3ccccc3[nH]c12 (centres unmarked) [Example 26, 2-[4-(4-Chlorophenyl)cyclohexyl]-9-oxo-4H-pyrazolo[5,1-b]quinazoline-3-carboxamide]",68.8%,-4.5%,
"O=c1c2ccccc2[nH]c2cc(-c3ccc(C(F)(F)F)cc3)nn12 [Example 71, 2-[4-(Trifluoromethyl)phenyl]-4H-pyrazolo[5,1-b]quinazolin-9-one]",108%,115%,
"NC(=O)c1c(-c2ccc(Cl)cc2Cl)nn2c(=O)c3cc(OCc4ccccc4)ccc3[nH]c12 [Example 55, 7-Benzyloxy-2-(2,4-dichlorophenyl)-9-oxo-4H-pyrazolo[5,1-b]quinazoline-3-carboxamide]",62.8%,,
"N#Cc1c(C2CCN(c3ccc(Cl)cc3)CC2)nn2c(=O)c3cc(Cl)ccc3[nH]c12 [Example 21, 7-Chloro-2-[1-(4-chlorophenyl)-4-piperidyl]-9-oxo-4H-pyrazolo[5,1-b]quinazoline-3-carbonitrile]",-2%,-2.6%,
"N#Cc1c(C2(c3ccc(Cl)cc3)CC2)nn2c(=O)c3cc(C(F)(F)F)ccc3[nH]c12 [Example 11, 2-[1-(4-Chlorophenyl)cyclopropyl]-9-oxo-7-(trifluoromethyl)-4H-pyrazolo[5,1-b]quinazoline-3-carbonitrile]",17.7%,-4.1%,730 nM
